From PMC9785311, “Effect of Structural Differences in Naringenin, Prenylated Naringenin, and Their Derivatives on the Anti-Influenza Virus Activity and Cellular Uptake of Their Flavanones” (Pharmaceuticals, 2022)
Like-named read-outs stand apart in the source and are kept apart here.

What was measured:
[1] = test system: influenza virus A/PR/8/34; test: microbe, parasite or virus in culture; format: cell-based, Type A influenza virus H1N1 (PR/8/34); conditions: for SI (Selectivity index = CC50/IC50): CC50 50% cytotoxicity concentration in MDCK cells (MTT), IC50 against A/PR/8/34
MDCK cells [2] = test: Efflux of prenylated naringenin after intracellular saturation; format: cell-based, canine; conditions: for Release of intracellular compound from the cell: after 180 min exposure, compound-free DMEM containing 1% FBS, 0-240 min; for Fluorescence intensity change after 120 min culture in compound-free medium compared to 0 min: cells saturated by 180 min exposure, then DMEM containing 1% FBS for 120 min
Procedure: Based on our results, we examined the kinetics of intracellular prenylated naringenin in Dulbecco’s Modified Eagle Medium (DMEM) containing 1% fetal bovine serum (FBS). […] The intracellular kinetics changed greatly depending on the position of the prenyl group. After 120 min of culturing in the medium, the fluorescence intensity of 8-PN and 6-PN increased approximately 1.6-fold and 9.4-fold, respectively, compared to that at 0 min (Figure 6).
Figure 5 Efflux of prenylated naringenin after intracellular saturation. The amount of the compound in the cells was saturated by exposure for 180 min, and the cells were cultured in Dulbecco’s Modified Eagle Medium (DMEM) for 0, 120, and 240 min. After removing the medium, cells were fixed with 4% paraformaldehyde and stained with DAPI (blue). These images show 8-PN (A) and 6-PN (B) fluorescence. Scale bars = 50 μm.
Figure 6 Efflux and fluorescence intensity of intracellular prenylated naringenins. Fluorescence intensity of 8-PN and 6-PN from Figure 5. The standard deviation bars are indicated on each bar graph. *** p < 0.001.

[3] = test system: influenza virus A/PR/8/34; test: Time-of-addition assay; format: cell-based, Type A influenza virus H1N1 (PR/8/34); conditions: 30 μM, MOI 0.01
From the text: We performed a time-of-addition assay to verify the effect of the prenyl group position on viral growth inhibition. Figure 7A,B show virus viability when exposed to each prenylated naringenin for each time duration. […] In previous studies, inhibitory effects differed depending on the flavonoid backbone. The anti-influenza virus effect depends on the position of the prenyl group, which is a novel observation of the present study.
Figure 7 Effect of prenylated naringenin on virus viability. (A) 8-PN and 6-PN (30 μM). (B) Schedule of the experiment. Cells were infected with influenza virus A/PR/8/34 at a multiplicity of infection of 0.01 in 24-well plates. After infection at each time point, the cells were harvested and viruses were assayed using a focus-forming reduction assay. […] Data are representative of three independent experiments. Standard deviation bars indicate each bar graph (*** p < 0.001, ** p < 0.01).
We conducted a time-of-addition assay as previously described. DMEM containing prenylated naringenin (30 μM) was added at −1–0 h (adsorption), 0–8 h (replication), 0–4 h, 0–2 h, 2–4 h, 4–8 h, 4–6 h, and 6–8 h. Furuta et al. estimated the intracellular cycle of infected cells before extracellular budding to be 8 h, and growth stages were assumed to occur at 2 h intervals.

MDCK cells [4] = test: Intracellular distribution by fluorescence microscopy of fixed cells; format: cell-based, canine; conditions: 30 μM, 180 min exposure, fixed with 4% paraformaldehyde, DAPI
Procedure: Cells cultured on glass plates were exposed to a concentration of 30 μM for 180 min. The exposed cells were washed with PBS and the compounds were removed from the medium. The cells were then fixed with 4% paraformaldehyde and observed under a fluorescence microscope. […] The amount of naringenin taken up by the cells may be small. Moreover, fluorescence was detected for prenylated naringenin.
Figure 4 Analysis of prenylated naringenin and naringenin fluorescence distribution by imaging. After removing the medium, cells were treated with 30 μM compound for 180 min and fixed with 4% paraformaldehyde. Fixed cells were stained with DAPI (blue). These images show fluorescence of 8-prenylnaringenin (8-PN; A), 6-prenylnaringenin (6-PN; B), and naringenin (C). Scale bars = 50 μm.
Cells were cultured on glass plates and incubated in a medium supplemented with the compound for 180 min. They were then washed and fixed with 4% paraformaldehyde for 30 min. After washing with PBS, DAPI staining was performed. Intracellular distribution was photographed and observed using an inverted fluorescence phase-contrast microscope (BZ-X800, Keyence, Osaka, Japan).

MDCK cells [5] = test: Cellular uptake by fluorescence microscopy; conditions: 30 μM compound, phenol red-free medium, 60-360 min, about 20 cells per time point
[6] = A/PR/8/34 strain in MDCK cells, mean ± SD of three independent experiments, ND = not detected

Compound | IC50 [1, 6] | SI (Selectivity index = CC50/IC50) [1] | IC50 ([1]; PR/8, MDCK) [µM] | melting point [°C] | further results
C=CCc1c(O)cc2c(c1O)C(=O)C[C@@H](c1ccc(O)cc1)O2 (racemic) [2a, 6-allylnaringenin] | weaker activities than 6-PN | 0.8 | 103 ± 3.8 | – | –
CC1(C)OC1Cc1c(O)cc(O)c2c1OC(c1ccc(O)cc1)CC2=O (stereo not drawn) [1a] | – | 2.7 | 59 ± 9 | 191.5 to 193 | –
C=C(C)C(Cc1c(O)cc(O)c2c1OC(c1ccc(O)cc1)CC2=O)OC(C)=O (stereo not drawn) [1b] | lost and not active | – | – | 189 to 191.5 | –
CC(=O)Oc1ccc(C2CC(=O)c3c(O)cc(OC(C)=O)c(CCC(C)C)c3O2)cc1 (stereo not drawn) [1c] | – | 6.3 | 42 ± 2.1 | – | –
CC(C)CCc1c(O)cc(O)c2c1OC(c1ccc(O)cc1)CC2=O (stereo not drawn) [1d] | – | 3.0 | 61 ± 14 | – | –
CC(=O)OC(Cc1c(O)cc(O)c2c1OC(c1ccc(O)cc1)CC2=O)C(C)C (stereo not drawn) [1e] | lost and not active | – | – | 155 to 156 | –
CC(C)CCc1c(O)cc2c(c1O)C(=O)CC(c1ccc(O)cc1)O2 (stereo not drawn) [2b] | weaker activities than 6-PN | 1.3 | 58 ± 15.2 | – | –
O=C1CC(c2ccc(O)cc2)Oc2cc(O)c(CC=C3CCCCC3)c(O)c21 (stereo not drawn) [2c] | not detected | – | – | 204.4 to 205.2 | –
O=C1CC(c2ccc(O)cc2)Oc2cc(O)c(CCC3CCCCC3)c(O)c21 (stereo not drawn) [2d] | not detected | – | – | 213.3 to 215.3 | –
CC(C)=CCc1c(O)cc2c(c1O)C(=O)C[C@@H](c1ccc(O)cc1)O2 [6-PN, 6-prenylnaringenin] | – | 5.5 | 38 ± 4.7 | – | Release of intracellular compound from the cell (MDCK cells [2]): released relatively quickly; Fluorescence intensity change after 120 min culture in compound-free medium compared to 0 min (MDCK cells [2]): ~9.4 fold; Inhibition of virus growth, 2 h exposure (4–6 h after infection) [3]: high inhibition tendency; Inhibition of virus growth, late stage (6–8 h) [3]: block the late stage of viral growth; Intracellular distribution of fluorescence (MDCK cells [4]): localize to the cytoplasmic periphery; Fluorescence intensity (intracellular uptake) (MDCK cells [5]): high fluorescence intensity
CC(C)=CCc1c(O)cc(O)c2c1O[C@H](c1ccc(O)cc1)CC2=O [8-PN, 8-prenylnaringenin] | – | 4.9 | 24 ± 0.6 | – | Release of intracellular compound from the cell (MDCK cells [2]): released from the cell slowly; Fluorescence intensity change after 120 min culture in compound-free medium compared to 0 min (MDCK cells [2]): approximately 1.6 fold; Inhibition of virus growth, exposure during virus adsorption period (−1–0 h) [3]: high inhibitory effect; Inhibition of virus growth, late stage (6–8 h) [3]: block the late stage of viral growth; Intracellular distribution of fluorescence (MDCK cells [4]): distributed mostly in the cytoplasm and nucleus; Fluorescence intensity (intracellular uptake) (MDCK cells [5]): high fluorescence intensity
CC(=O)Oc1ccc(C2CC(=O)c3c(O)cc(OC(C)=O)cc3O2)cc1 (stereo not drawn) [Naringenin-4′,7′-diacetate] | – | – | – | – | IC50 ([1]; A/PR/8/34 strain in MDCK cells, mean ± SD of three independent experiments, ND = not detected, listed as naringenin-4′,7-diacetate): markedly lost its anti-influenza activity; IC50 ([1]; A/PR/8/34 strain in MDCK cells, mean ± SD of three independent experiments, ND = not detected, listed as naringenin-4′,7′-diacetate): lost its activity
CCC(CC)O[C@@H]1C=C(C(=O)O)C[C@H](N)[C@H]1NC(C)=O [oseltamivir acid, reference compound] | – | – | 0.002 | – | –
(±)-Naringenin [reference compound] | – | 4.9 | – | – | IC50 ([1]; A/PR/8/34 strain in MDCK cells, mean ± SD of three independent experiments, ND = not detected, read-out: IC50): 290 ± 16.2 µM
